The text below walks through data of article PMC11728001, “Design, Synthesis, and Biological Evaluation of Novel Urea-Containing Carnosic Acid Derivatives with Anticancer Activity” (International Journal of Molecular Sciences, 2024).

Common to all, as to format: cell-based
The test system of assay [1] is HCT116 colorectal cancer cell line. Briefly: MTT cell viability assay, HCT116. The note with it: Homo sapiens, HCT-116, 72 h incubation, mean ± SD. The procedure: The antiproliferative activity of CA 1 and its derivatives was evaluated against a colorectal cancer (CRC) cell line (HCT116) using the MTT assay. The anticancer drug cisplatin was used as the reference drug.
(§1) The effect of the compounds on cell viability was evaluated using the MTT assay. HCT116 (3000 cells/well), SW620 (8000 cells/well), SW480 (6000 cells/well), Caco-2 (4000 cells/well), A375 (1500 cells/well), MiaPaca-2 (2000 cells/well), and BJ (10,000 cells/well) cells were seeded in 96-well plates. After 24 h, the growth medium was replaced with a fresh medium containing the desired concentration of the compound or DMSO (control). After 72 h of incubation, the supernatant was removed and 100 µL of a mixture (1:1) of filtered MTT solution (1 mg/mL in PBS) with FBS-free medium was added to each well. After 1 h of incubation at 37 °C, the mixture was removed and 100 µL of DMSO was added to each well to dissolve the formed formazan crystals. Absorbance was immediately measured at 570 nm using a Benchmark Plus Microplate Reader (Bio-Rad Laboratories, Hercules, CA, USA). IC50 values were calculated using GraphPad Prism 9 software (GraphPad Software, San Diego, CA, USA) and expressed as the mean ± standard deviation (SD) of at least three independent experiments.
Background: Tetrazolium assays rely on reduction of a dye to a coloured formazan, in cell work by metabolically active cells.

The next assay has as its system SW620 cells. Briefly: MTT cell viability assay, SW620. The note with it: Homo sapiens, SW-620, 72 h incubation, mean ± SD. The procedure:
as §1

The test system of the next assay is Caco-2 cells. Briefly: MTT cell viability assay, Caco-2. The note with it: Homo sapiens, 72 h incubation, mean ± SD. The procedure:
as §1

For another assay, the system named is A375 melanoma cells. Briefly: MTT cell viability assay, A375. Particulars: Homo sapiens, A-375, 72 h incubation, mean ± SD. The protocol:
as §1

Assay [2] deals with MiaPaca-2 pancreatic cancer cells. Briefly: MTT cell viability assay, MiaPaca-2. The note with it: Homo sapiens, MIA PaCa-2, 72 h incubation, mean ± SD. The procedure: as §1
The subject of assay [3] is BJ non-tumoral fibroblast cell line. Put plainly: MTT cell viability assay, BJ. The note with it: 72 h incubation. The protocol:
as §1

A further assay has as its system SW480 cells. Put plainly: Apoptosis assay (annexin V-FITC/PI, FACS). The note with it: SW480, IC50 concentration. From the text:
Apoptosis can be detected by staining the cells with annexin V and propidium iodide (PI). […] However, during the early stages of apoptosis, the membrane flips and PS is exposed on the outer side of the cell membrane. Thus, annexin V fluorescently labeled with fluorescein isothiocyanate (FITC) binds with high affinity for PS. In late apoptosis/necrosis, the cells experience a ruptured membrane, allowing Annexin V to interact with the entire cell membrane. At this stage, the nuclear membrane loses its integrity, which facilitates the binding of PI to DNA. Thus, this dual-staining protocol allows for the detection and quantification of live cells (annexin V−, PI−), early apoptotic cells (annexin V+, PI−), and late apoptotic/necrotic cells (annexin V+, PI+).
SW480 cells (1.68 × 10^5 cells/well) were seeded in 6-well plates and incubated at 37 °C for 24 h. Subsequently, the growth medium was replaced with fresh medium (control) or compound 14 at the previously determined IC50 concentration. Following incubation for 24, 48, or 72 h, the adherent cells were gently detached by trypsinization, washed with DPBS, and collected by centrifugation. Similarly, the cells in suspension were washed with DPBS and collected by centrifugation, along with the adhered cells. […]

A further assay concerns CDK4. Put plainly: Western blot, CDK4 expression in SW480 cells. Particulars: SW480, IC50 concentration, 24 and 72 h. The procedure:
SW480 cells (1.68 × 10^5 cells/well) were seeded in 6-well plates and incubated at 37 °C for 24 h. […] At the end of the treatment period, cells were washed twice with ice-cold DPBS and incubated for 30 min. at 4 °C with lysis buffer containing 20 mM Tris-HCl (pH 7.5), 1 mM DTT, 0.2% Triton X-100, 1 mM Na-EDTA, 0.5 mM sodium deoxycholate, 1% proteases inhibitor cocktail, and 0.5% phosphatases inhibitor cocktail. The cells were scraped, sonicated, and centrifuged at 12,000× g for 20 min. at 4 °C. The supernatants were recovered, and the protein concentration was quantified using Pierce^TM BCA protein assay reagents A and B and Pierce^TM bovine serum albumin standard ampules (2 mg/mL).
Membranes were blocked with 5% skim milk in PBS-Tween-20 (0.1%) for 1 h at room temperature, following its incubation with the specific primary antibodies overnight at 4 °C (CDK4, CDK6, and SOD2 (MnSOD)). Exceptionally, the primary antibody against actin was only incubated for 30 min. at room temperature. The membranes were then washed with PBS-Tween-20 (0.1%) and incubated for 40 min. with an anti-mouse secondary antibody or for 1 h with an anti-rabbit secondary antibody. After incubation, the membranes were washed again with PBS-Tween-20 (0.1%) and treated with the Immobilon Western Chemiluminescent HRP Substrate Kit. […]
For orientation: In western blotting, separated proteins are transferred to a membrane and probed.

Assay [4] deals with intracellular ROS in SW480 cells. Briefly: ROS determination assay (H2DCFDA, flow cytometry). Particulars: SW480, IC50 concentration. The protocol:
Intracellular ROS levels were assessed by flow cytometry using H2DCFDA probe. SW480 cells were cultured in 6-well plates and treated according to the procedure described for the apoptosis assay. After incubation for 24, 48, and 72 h, adherent cells were collected by centrifugation after trypsinization and washed with DPBS. The cells were then incubated with 1 mL HBSS containing 2 mM L-glutamine and 50 µM H2DCFDA probe at 37 °C for 45 min. in a cell culture incubator. Next, the cellular suspension was washed with 2 mL of DPBS and the cells were collected by centrifugation. Finally, the cells were gently resuspended in 350 µL DPBS containing 20 µg/mL PI solution (1 mg/mL). The intracellular internalized probe reacts with ROS and undergoes transformation into 2′,7′-dichlorofluorescein (DCF). DCF fluorescence data were collected from 1 × 10^4 PI-negative cells by using a Gallios flow cytometer (Beckman Coulter, Brea, CA, USA) at 520 nm.

By IC50 is commonly meant the concentration that inhibits the measured activity by half. A high value points to lower potency. On to `CC(=O)Oc1c(C(C)C)cc2c(c1OC(C)=O)[C@@]1(NC(=O)NCCc3cccc(Cl)c3)CCCC(C)(C)[C@@H]1CC2` [Compound 14, (4bR,8aS)-4b-(3-(3-chlorophenethyl)ureido)-2-isopropyl-8,8-dimethyl-4b,5,6,7,8,8a,9,10-octahydrophenanthrene-3,4-diyl diacetate], for which the 50% inhibitory concentration (IC50) in [1] was 9.8 ± 0.5 µM; in the assay on SW620 cells it was 6.1 ± 0.3 µM; with Caco-2 cells, 8 ± 0.5 µM; in the assay on A375 melanoma cells, 7 ± 0.4 µM; in assay [2] it was 9 ± 0.8 µM; in assay [3], more than 25 µM. The “increase of cells in late apoptosis/necrosis” value in the assay with SW480 cells (48 and 72 h) is recorded as “not sustained”. The “percentage of cells in late apoptosis/necrosis” value in the assay on SW480 cells (24 h, control 6.5%) was 8.3%. Moreover, the “CDK4 expression versus untreated cells” value in the assay on CDK4 was “downregulation”. Also, the “percentage of intracellular ROS compared with control” value in [4] (24 h) stood at 56%; in [4] (48 h), 71%. Also, the “change in ROS levels” value in assay [4] (72 h) is “no significant changes”.
